How the values were obtained:
Type in all cases: functional, Homo sapiens
Design in all cases: dose or concentration left out as unconfirmed
Colon cancer organoid [1] = test: Optimized Dual-Glo assay to identify co-culture induced drug vulnerabilities using donated chemical probes and chemogenomics kinase set in O06 CRC organoid and F06 CAF mono and co-culture. […] Cell viability is reported both mono and co-culture models.
Colon cancer organoid [2] = test: Optimized Dual-Glo assay to identify co-culture induced drug vulnerabilities using donated chemical probes and chemogenomics kinase set in O14 CRC organoid and F14 CAF mono and co-culture. […] Cell viability is reported both mono and co-culture models.
Colon cancer organoid [3] = test: Optimized Dual-Glo assay to identify co-culture induced drug vulnerabilities using donated chemical probes and chemogenomics kinase set in O20 CRC organoid and F20 CAF mono and co-culture. […] Cell viability is reported both mono and co-culture models.
[4] = Culture type Co-Culture, Transduced with Lucferase2-P2A-EGFP lentivirus
[5] = Culture type Co-Culture, Transduced with Renilla-dsRed lentivirus
[6] = Culture type Mono-Culture, Transduced with Lucferase2-P2A-EGFP lentivirus
[7] = Culture type Mono-Culture, Transduced with Renilla-dsRed lentivirus

SMILES | Cell Viability (Colon cancer organoid [1]; [4]) [%] | Cell Viability (Colon cancer organoid [1]; [5]) [%] | Cell Viability (Colon cancer organoid [1]; [6]) [%] | Cell Viability (Colon cancer organoid [1]; [7]) [%] | Cell Viability (Colon cancer organoid [2]; [4]) [%] | Cell Viability (Colon cancer organoid [2]; [5]) [%] | Cell Viability (Colon cancer organoid [2]; [6]) [%] | Cell Viability (Colon cancer organoid [2]; [7]) [%] | Cell Viability (Colon cancer organoid [3]; [4]) [%] | Cell Viability (Colon cancer organoid [3]; [5]) [%] | Cell Viability (Colon cancer organoid [3]; [6]) [%] | Cell Viability (Colon cancer organoid [3]; [7]) [%]
CC(C)(C)OC(=O)N1CCCC1CNC1CCC(c2cc(F)ccc2F)(S(=O)(=O)c2ccc(Cl)cc2)CC1 (stereo not drawn) [GSI-NC] | 109.794 | 188.651 | 83.1857 | 79.5795 | 82.5384 | 107.99 | 97.33 | 95.7632 | 93.8933 | 100.789 | 108.621 | 95.0953
CC(=O)Nc1c(F)cc(C(=O)N[C@H]2CC[C@H](O)CC2)cc1O[C@@H](C)c1ccccc1 [GSK046] | 141.493 | 157.689 | 89.308 | 140.24 | 94.8329 | 149.721 | 98.5047 | 138.141 | 117.929 | 118.66 | 59.393 | 129.379
CNC(=O)c1cc(C(=O)NC2CC2)cn(Cc2ccccc2)c1=O [GSK620] | 111.223 | 132.009 | 81.6367 | 131.621 | 179.546 | 145.239 | 105.323 | 134 | 92.6025 | 100.747 | 72.9667 | 110.848
COCc1nc2cnc3cc(-c4c(C)noc4C)c(OC[C@H]4CCNC4)cc3c2n1[C@H](C)c1ccccc1 [GSK778] | 81.063 | 183.714 | 53.5183 | 186.322 | 59.3767 | 280.444 | 39.3913 | 175.876 | 27.5933 | 143.906 | 31.8546 | 105.119
Cc1cc2c(-c3ccco3)cnc(N[C@@H]3CCN(C)C[C@H]3C(=O)NC3CCCCC3)c2[nH]c1=O [GSK789] | 76.5976 | 134.369 | 59.8107 | 179.691 | 80.165 | 245.195 | 48.5278 | 143.743 | 33.945 | 125.83 | 39.8308 | 103.931
Cc1cc2c(-c3ccco3)cnc(N[C@H]3CCN(C)C[C@@H]3C(=O)NC3CCCCC3)c2[nH]c1=O [GSK791] | 113.813 | 153.556 | 183.923 | 92.8694 | 95.0265 | 100.863 | 120.55 | 112.529 | 101.755 | 116.18 | 85.6153 | 75.9377
CNC(=O)c1cc(C(=O)N[C@H]2[C@@H]3COC[C@@H]32)cc2c1O[C@@H](CF)[C@@H]2c1ccccc1 [GSK943] | 83.6271 | 130.888 | 89.2117 | 119.155 | 119.043 | 94.0726 | 104.923 | 119.987 | 106.252 | 108.354 | 98.6986 | 128.773
CNC(=O)c1cc(C(=O)N[C@H]2[C@@H]3COC[C@@H]32)cc2c1O[C@H](CF)[C@H]2c1ccccc1 [GSK973] | 110.942 | 170.924 | 57.9314 | 146.399 | 93.0111 | 167.902 | 105.165 | 155.71 | 97.8368 | 135.509 | 77.6772 | 131.324
C[C@@H](Oc1cc(-n2cnc3ccc(CN4CCN(C)CC4)cc32)sc1C(N)=O)c1ccccc1C(F)(F)F [GSK-461364] | 8.2073 | 127.3 | 6.274 | 91.647 | 37.954 | 173.445 | 46.1468 | 90.9348 | 36.0345 | 141.481 | 13.8424 | 71.1921
O=C(O)c1ccc(-c2c[nH]c3ncc(-c4ccccc4)cc23)cc1C1CCCC1 [GSK-650394] | 150.298 | 125.274 | 142.061 | 114.363 | 84.2987 | 94.4983 | 153.467 | 103.115 | 93.9419 | 129.576 | 65.3151 | 121.845
CCn1cc(-c2ccnc3[nH]c(-c4cccc(CN(C)C)c4)cc23)c(-c2ccc(NC(=O)N(C)C)cc2)n1 [GSK-1070916] | 8.589 | 116.692 | 3.637 | 93.7927 | 29.7048 | 205.838 | 28.675 | 102.681 | 9.493 | 207.056 | 12.2557 | 100.034
COc1ccc(COc2ccc(Cc3cnc(N)nc3N)cc2OC)cc1 [GW632580X] | 84.8428 | 83.7807 | 109.175 | 109.596 | 102.637 | 115.835 | 144.397 | 94.931 | 200.024 | 84.9331 | 115.095 | 88.8877
COc1cc2ncn(-c3cc(OCc4ccccc4C(F)(F)F)c(C(N)=O)s3)c2cc1OC [GW843682X] | 4.781 | 182.458 | 3.81 | 121.646 | 8.715 | 209.484 | 23.2418 | 105.344 | 89.2195 | 152.214 | 57.1216 | 108.759
CCOc1cc2ncc(C#N)c(Nc3ccc(OCc4cccc(F)c4)c(Cl)c3)c2cc1NC(=O)/C=C/CN(C)C [HKI-357] | 16.8896 | 39.6819 | 6.232 | 45.0211 | 25.3344 | 46.9424 | 1.402 | 33.5455 | 50.2885 | 47.1207 | 7.299 | 36.419

— ChEMBL document CHEMBL5674860, “Optimized Dual-Glo Assay to identify co-culture-induced drug vulnerabilities in 3D CRC models” (2024)
